Experimental data as given in US9295682B2, “Adjuvant immunotherapy for the preventive, curative or palliative treatment of chronic systemic diseases such as cancer, of clinical manifestations associated with diseases like cachexia and correction of adverse effects of drugs such as immunosuppression, neutropenia and lymphopenia, comprising …” (priority 2009, dated 2016).
Values joined by “and” are separate entries in the source; they are usually repeats but may differ in a detail not shown here. Equal entries are not always repeated.

Assays:
[1] = tested on: NF-κB Control cells; assay: Toll-like receptor screening, NF-κB control cells; format: cell-based; conditions: TNFα 100 ng/ml
Procedure: (§1) Samples in three concentrations (0.5 μg/mL, 5 μg/mL, and 50 μg/mL) of the biological response modifier (proteic aggregate of ammonium and magnesium phospholinoleate-palmitoleate anhydride) were dissolved in dimethylsulfoxide (DMSO at 1%) at the concentration of 1% and incubated with 293 TLR cells (HEK293 cells) in microplates, in duplicate, for 20 hours.
(§2) Standard compounds, that is, ligands known for TLR 3 to TLR9 in predetermined concentrations were also incubated in microplates with 293 TLR cells (HEK293 cells) for 20 hours.
(§3) Subsequently, absorbance readings were taken of the microplates […] at 650 nm using a Beckman Coulter AD 340C Absorbance Detector device with three concentrations of the biological response modifier (proteic aggregate of ammonium and magnesium phospholinoleate-palmitoleate anhydride) incubated with the HEK293 cells and readings were also taken of the microplates incubated with the same cells and the control substances, for comparative assessment of the percentage of binding of the aforementioned compounds to toll-like receptors expressed in HEK293 cells.

[2] = target: T1, hTLR8 (Homo sapiens, UniProt Q9NR97); assay: Toll-like receptor binding/stimulation, HEK293 cells expressing hTLR8; format: cell-based; conditions: CL075 1 μg/mL
T1 construct: expressed in transfected cells; host or cells: HEK293 (293/hTLR8)
T1 sequence (Q9NR97 27-1041): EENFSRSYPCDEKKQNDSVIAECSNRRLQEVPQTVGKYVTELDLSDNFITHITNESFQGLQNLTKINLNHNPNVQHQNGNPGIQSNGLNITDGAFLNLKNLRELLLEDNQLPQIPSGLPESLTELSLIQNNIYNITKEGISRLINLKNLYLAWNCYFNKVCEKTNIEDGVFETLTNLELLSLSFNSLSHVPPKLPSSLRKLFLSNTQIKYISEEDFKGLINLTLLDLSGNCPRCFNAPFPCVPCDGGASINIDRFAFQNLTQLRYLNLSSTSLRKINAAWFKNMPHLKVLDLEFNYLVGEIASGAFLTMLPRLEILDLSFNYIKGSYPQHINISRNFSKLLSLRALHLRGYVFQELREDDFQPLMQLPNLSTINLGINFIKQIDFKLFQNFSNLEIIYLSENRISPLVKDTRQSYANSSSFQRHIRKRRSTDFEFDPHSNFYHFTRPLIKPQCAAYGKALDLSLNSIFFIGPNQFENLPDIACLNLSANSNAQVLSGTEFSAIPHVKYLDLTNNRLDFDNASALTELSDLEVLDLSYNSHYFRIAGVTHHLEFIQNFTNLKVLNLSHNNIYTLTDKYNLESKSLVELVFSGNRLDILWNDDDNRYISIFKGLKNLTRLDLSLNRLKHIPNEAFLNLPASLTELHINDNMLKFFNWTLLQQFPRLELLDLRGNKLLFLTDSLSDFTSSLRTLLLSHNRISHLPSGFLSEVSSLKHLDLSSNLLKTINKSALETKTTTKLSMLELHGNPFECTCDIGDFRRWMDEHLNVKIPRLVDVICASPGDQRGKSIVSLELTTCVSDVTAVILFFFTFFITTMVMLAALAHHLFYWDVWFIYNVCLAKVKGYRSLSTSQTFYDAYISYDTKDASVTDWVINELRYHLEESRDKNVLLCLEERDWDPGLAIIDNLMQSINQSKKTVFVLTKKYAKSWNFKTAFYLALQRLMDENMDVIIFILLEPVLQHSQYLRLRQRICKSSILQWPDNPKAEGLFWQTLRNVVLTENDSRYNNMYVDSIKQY
Procedure: as §1, §2, §3

[3] = target: T2, hTLR7 (Homo sapiens, UniProt Q9NYK1); assay: Toll-like receptor binding/stimulation, HEK293 cells expressing hTLR7; format: cell-based; conditions: CL097 1 μg/mL
T2 construct: expressed in transfected cells; host or cells: HEK293 (293/hTLR7)
T2 sequence (Q9NYK1 27-1049): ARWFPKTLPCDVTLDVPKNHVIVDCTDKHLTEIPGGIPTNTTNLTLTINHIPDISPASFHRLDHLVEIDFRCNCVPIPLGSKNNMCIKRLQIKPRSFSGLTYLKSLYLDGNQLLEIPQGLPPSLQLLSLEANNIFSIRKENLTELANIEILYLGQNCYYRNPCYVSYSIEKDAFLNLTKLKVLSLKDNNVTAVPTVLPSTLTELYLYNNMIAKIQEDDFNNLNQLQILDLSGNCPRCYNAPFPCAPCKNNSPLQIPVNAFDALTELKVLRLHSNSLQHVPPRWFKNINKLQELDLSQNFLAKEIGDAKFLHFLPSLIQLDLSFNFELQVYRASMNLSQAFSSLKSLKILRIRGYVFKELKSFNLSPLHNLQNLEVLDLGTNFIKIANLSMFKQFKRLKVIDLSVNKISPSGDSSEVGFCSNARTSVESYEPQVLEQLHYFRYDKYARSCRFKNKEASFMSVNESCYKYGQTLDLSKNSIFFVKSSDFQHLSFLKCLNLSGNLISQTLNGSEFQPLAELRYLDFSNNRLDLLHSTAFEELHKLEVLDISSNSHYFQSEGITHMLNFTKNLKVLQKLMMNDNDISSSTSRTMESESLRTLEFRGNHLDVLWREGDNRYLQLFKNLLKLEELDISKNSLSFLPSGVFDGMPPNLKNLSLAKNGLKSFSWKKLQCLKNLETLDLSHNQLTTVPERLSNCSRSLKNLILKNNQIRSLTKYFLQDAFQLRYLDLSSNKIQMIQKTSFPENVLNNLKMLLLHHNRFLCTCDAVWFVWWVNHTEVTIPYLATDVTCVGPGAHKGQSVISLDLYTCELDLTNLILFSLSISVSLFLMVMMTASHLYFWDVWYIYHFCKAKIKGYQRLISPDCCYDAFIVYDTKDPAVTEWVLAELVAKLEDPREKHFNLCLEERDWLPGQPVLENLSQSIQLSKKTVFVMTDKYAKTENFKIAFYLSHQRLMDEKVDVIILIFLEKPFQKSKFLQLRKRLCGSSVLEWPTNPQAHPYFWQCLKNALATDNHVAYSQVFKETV
Procedure: as §1, §2, §3

[4] = target: T3, hTLR9 (Homo sapiens, UniProt Q9NR96); assay: Toll-like receptor binding/stimulation, HEK293 cells expressing hTLR9; format: cell-based; conditions: CpG ODN 2006 1 μg/mL
T3 construct: expressed in transfected cells; host or cells: HEK293 (293/hTLR9)
T3 sequence (Q9NR96 26-1032): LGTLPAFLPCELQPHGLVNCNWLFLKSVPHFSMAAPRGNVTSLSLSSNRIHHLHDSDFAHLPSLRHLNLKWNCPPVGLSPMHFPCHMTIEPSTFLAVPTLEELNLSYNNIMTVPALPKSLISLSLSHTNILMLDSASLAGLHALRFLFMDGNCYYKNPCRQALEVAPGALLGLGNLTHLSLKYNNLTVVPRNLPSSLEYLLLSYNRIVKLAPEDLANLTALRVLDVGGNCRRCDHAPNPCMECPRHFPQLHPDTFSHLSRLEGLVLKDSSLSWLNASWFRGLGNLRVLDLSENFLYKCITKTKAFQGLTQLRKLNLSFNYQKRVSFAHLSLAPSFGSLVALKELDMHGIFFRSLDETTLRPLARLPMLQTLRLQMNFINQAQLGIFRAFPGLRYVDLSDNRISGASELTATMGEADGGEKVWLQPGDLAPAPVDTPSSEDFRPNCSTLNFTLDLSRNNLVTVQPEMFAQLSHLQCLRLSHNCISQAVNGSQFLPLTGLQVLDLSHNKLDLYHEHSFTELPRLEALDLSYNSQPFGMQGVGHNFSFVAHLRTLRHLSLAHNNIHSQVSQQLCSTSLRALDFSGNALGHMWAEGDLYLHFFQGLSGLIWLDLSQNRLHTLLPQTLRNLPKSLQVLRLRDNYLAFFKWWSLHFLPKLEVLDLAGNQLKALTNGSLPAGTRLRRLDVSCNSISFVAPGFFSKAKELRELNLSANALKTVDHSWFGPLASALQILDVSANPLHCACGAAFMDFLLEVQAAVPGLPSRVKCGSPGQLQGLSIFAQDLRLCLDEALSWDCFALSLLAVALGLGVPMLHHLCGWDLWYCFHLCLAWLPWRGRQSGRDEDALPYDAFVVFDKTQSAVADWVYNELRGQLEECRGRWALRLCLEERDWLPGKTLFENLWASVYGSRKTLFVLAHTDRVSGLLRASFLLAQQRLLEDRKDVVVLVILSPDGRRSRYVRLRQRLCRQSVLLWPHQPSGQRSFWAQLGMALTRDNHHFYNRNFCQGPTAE
Procedure: as §1, §2, §3

[5] = tested on: metastatic melanoma; conditions: high doses of interferon-alpha alone; cited from earlier work
[6] = target: T4, hTLR3 (Homo sapiens, UniProt O15455); assay: Toll-like receptor binding/stimulation, HEK293 cells expressing hTLR3; format: cell-based; conditions: Poly (I: C) 1 μg/mL
T4 construct: expressed in transfected cells; host or cells: HEK293 (293/hTLR3)
T4 sequence (O15455 24-904): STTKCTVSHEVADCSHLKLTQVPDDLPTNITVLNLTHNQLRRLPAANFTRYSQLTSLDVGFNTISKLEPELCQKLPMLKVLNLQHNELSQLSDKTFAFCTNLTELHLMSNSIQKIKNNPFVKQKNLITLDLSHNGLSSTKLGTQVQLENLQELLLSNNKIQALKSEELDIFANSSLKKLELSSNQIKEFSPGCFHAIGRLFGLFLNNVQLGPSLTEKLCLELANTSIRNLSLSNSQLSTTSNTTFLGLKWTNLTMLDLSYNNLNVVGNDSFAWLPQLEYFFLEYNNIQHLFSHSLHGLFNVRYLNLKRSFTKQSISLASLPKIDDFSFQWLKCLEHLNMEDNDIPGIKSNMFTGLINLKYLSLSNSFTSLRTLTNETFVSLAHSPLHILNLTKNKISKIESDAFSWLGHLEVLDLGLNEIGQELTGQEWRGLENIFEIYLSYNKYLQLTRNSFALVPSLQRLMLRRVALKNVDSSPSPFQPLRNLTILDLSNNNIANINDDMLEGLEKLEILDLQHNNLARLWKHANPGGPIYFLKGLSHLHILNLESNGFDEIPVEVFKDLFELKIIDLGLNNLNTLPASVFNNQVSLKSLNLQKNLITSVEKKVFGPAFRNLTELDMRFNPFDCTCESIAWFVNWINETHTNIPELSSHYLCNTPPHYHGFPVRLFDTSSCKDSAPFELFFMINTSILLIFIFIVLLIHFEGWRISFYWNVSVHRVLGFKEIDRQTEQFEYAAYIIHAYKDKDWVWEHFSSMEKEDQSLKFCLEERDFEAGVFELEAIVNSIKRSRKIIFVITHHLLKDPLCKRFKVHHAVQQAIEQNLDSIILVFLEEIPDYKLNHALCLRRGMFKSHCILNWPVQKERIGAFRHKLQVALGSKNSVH
Procedure: as §1, §2, §3

[7] = target: hTLR5 (Homo sapiens, UniProt O60602); assay: Toll-like receptor binding/stimulation, HEK293 cells expressing hTLR5; format: cell-based; conditions: S. typhimurium flagellin 100 ng/ml
Sequence of hTLR5 (O60602 21-858): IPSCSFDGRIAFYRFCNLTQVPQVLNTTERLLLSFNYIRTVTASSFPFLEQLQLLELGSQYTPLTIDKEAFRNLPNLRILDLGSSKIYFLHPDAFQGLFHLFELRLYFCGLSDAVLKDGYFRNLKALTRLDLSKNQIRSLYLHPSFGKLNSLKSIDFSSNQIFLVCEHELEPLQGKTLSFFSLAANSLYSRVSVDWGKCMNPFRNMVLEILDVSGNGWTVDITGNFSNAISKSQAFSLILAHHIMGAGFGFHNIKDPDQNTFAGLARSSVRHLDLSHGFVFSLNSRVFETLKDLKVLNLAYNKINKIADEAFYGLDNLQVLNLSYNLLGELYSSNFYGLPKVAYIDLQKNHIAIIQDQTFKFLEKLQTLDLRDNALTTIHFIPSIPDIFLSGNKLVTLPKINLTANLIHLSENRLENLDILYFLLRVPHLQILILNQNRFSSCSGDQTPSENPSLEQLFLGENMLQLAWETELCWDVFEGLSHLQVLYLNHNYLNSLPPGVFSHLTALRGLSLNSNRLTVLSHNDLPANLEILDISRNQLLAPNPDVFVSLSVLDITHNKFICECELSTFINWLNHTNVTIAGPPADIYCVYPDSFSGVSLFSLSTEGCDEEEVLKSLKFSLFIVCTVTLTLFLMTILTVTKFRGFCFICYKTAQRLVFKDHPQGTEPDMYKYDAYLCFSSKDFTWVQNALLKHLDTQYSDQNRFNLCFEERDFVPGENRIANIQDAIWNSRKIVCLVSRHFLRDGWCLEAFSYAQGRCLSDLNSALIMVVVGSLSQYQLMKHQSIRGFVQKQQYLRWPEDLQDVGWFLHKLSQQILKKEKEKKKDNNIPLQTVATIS
Procedure: Subsequently, absorbance readings were taken of the microplates by fluorescence at 650 nm using a Beckman Coulter AD 340C Absorbance Detector device with three concentrations of the biological response modifier (proteic aggregate of ammonium and magnesium phospholinoleate-palmitoleate anhydride) incubated with the HEK293 cells and readings were also taken of the microplates incubated with the same cells and the control substances, for comparative assessment of the percentage of binding of the aforementioned compounds to toll-like receptors expressed in HEK293 cells.

TNFα
OD (650 nm), Cells NF-κB Controls, Controls+ ([1]; 20 h, screening 1 and 2): 2.221 OD (650 nm) and 2.042 OD (650 nm) | % ligands (% bindings), Cell NF-κB Controls, Controls ([1]; reference): 100%

CCCc1nc2c(N)nc3ccccc3c2s1 [CL075]
OD (650 nm), 293/hTLR8 cells, Controls+ ([2]; 20 h, screening 1 and 2): 3.313 OD (650 nm) and 3.338 OD (650 nm) | % ligands (% bindings), 293/hTLR8, Controls ([2]; reference): 100%

CCOCc1nc2c([nH]1)c(N)nc1ccccc12 [CL097]
OD (650 nm), 293/hTLR7 cells, Controls+ ([3]; 20 h, screening 1 and 2): 3.222 OD (650 nm) and 3.359 OD (650 nm) | % ligands (% bindings), 293/hTLR7, Controls ([3]; reference): 100%

CpG ODN 2006
OD (650 nm), 293/hTLR9 cells, Controls+ ([4]; 20 h, screening 1 and 2): 2.582 OD (650 nm) and 2.519 OD (650 nm) | % ligands (% bindings), 293/hTLR9, Controls ([4]; reference): 100%

interferon-alpha
response rate [5]: around 20%

Poly (I: C)
OD (650 nm), 293/hTLR3 cells, Controls+ ([6]; 20 h, screening 1 and 2): 3.287 OD (650 nm) and 3.440 OD (650 nm) | % ligands (% bindings), 293/hTLR3, Controls ([6]; reference): 100%

B1: S. typhimurium flagellin: TLR5 control ligand (protein, UniProt P06179 2-495, looked up)
Flagellin: AQVINTNSLSLLTQNNLNKSQSALGTAIERLSSGLRINSAKDDAAGQAIANRFTANIKGLTQASRNANDGISIAQTTEGALNEINNNLQRVRELAVQSANSTNSQSDLDSIQAEITQRLNEIDRVSGQTQFNGVKVLAQDNTLTIQVGANDGETIDIDLKQINSQTLGLDTLNVQQKYKVSDTAATVTGYADTTIALDNSTFKASATGLGGTDQKIDGDLKFDDTTGKYYAKVTVTGGTGKDGYYEVSVDKTNGEVTLAGGATSPLTGGLPATATEDVKNVQVANADLTEAKAALTAAGVTGTASVVKMSYTDNNGKTIDGGLAVKVGDDYYSATQNKDGSISINTTKYTADDGTSKTALNKLGGADGKTEVVSIGGKTYAASKAEGHNFKAQPDLAEAAATTTENPLQKIDAALAQVDTLRSDLGAVQNRFNSAITNLGNTVNNLTSARSRIEDSDYATEVSNMSRAQILQQAGTSVLAQANQVPQNVLSLLR
OD (650 nm), 293/hTLR5 cells, Controls+ ([7]; 20 h, screening 1 and 2): 3.662 OD (650 nm) and 3.798 OD (650 nm) | % ligands (% bindings), 293/hTLR5, Controls ([7]; reference): 100%
